# Measurements as given in the OligoGym collection.
# These antisense oligonucleotides have a phosphorothioate backbone; sugars and methylation of C are not fully specified.
# What was measured:
# Conditions in all cases: ASO
# GNA13 = target: GNA13
# E2F1 = target: E2F1
# AKT3 = target: AKT3
# Further: test concentration or dose not given here.
Sequence,remaining target (mRNA or protein) (fraction of control) (E2F1),remaining target (mRNA or protein) (fraction of control) (AKT3),also measured
TTGTTGGTTTGAGTTGTC,–,–,remaining target (mRNA or protein) (fraction of control) (GNA13): ≥ 1
AGGAAGCGCTTGGTGGTCAG,0.72,–,–
GGGCCGGTGGGAGCCGGCGG,0.37,–,–
AACCTTTAAGACAGAAGTGC,0.74,–,–
GCGGCCCGGGTGACAGGCGG,0.32,–,–
CAGCTGCTGCTCGCTCTCCT,0.63,–,–
AGGTCTCTGATGCCCTCGCC,0.53,–,–
GCAGGCGCTTCAGACACTGC,0.3,–,–
TCTGCGAGGAGTCGAGCAGC,0.79,–,–
GTGACACTATGGTGGCAGAG,0.75,–,–
GCCGACGCCCACTGTGGTGT,0.45,–,–
TGCACACACAGAGGTGTATG,0.27,–,–
GGCTGCCCATCCGGGACAAC,0.53,–,–
GGCCATGACGCTCACGGCCC,0.76,–,–
TGAAAGTTCTCCGAAGAGTC,0.56,–,–
ATATATTCTCCCCTCTTC,–,≥ 1,–
TTTGCCACTGAAAAGTTG,–,≥ 1,–
GGACTCATGCACACACATGT,0.16,–,–
GAGTCGGCCGCCACCAGCGG,0.27,–,–
AATCCACATCTTGAGGTT,–,≥ 1,–
CTATGAATGAGCCATCTG,–,0.99,–
TACTCTGGAAACCCTGGTCC,0.75,–,–
TTTGATCACCATAACCATCT,0.08,–,–

Sequence,remaining target (mRNA or protein) (fraction of control) (E2F1),remaining target (mRNA or protein) (fraction of control) (AKT3),also measured
CACCTTTTCCTGGATGGCGG,0.47,–,–
TCTTCTTGCCTCTGCAGT,–,≥ 1,–
GGCCGCGGCGCACTGGGTGT,0.79,–,–
TCCCCTCTTCTGAACCCA,–,0.55,–
GGTCCAGCCTCCGCTTCACC,0.36,–,–
CAGGCGGCGGCGGCGGCGCG,0.82,–,–
GGTCCCTCCAAGCCCTGTCA,0.2,–,–
AAGCCCTGTCAGAAATCCAG,0.58,–,–
TGTTAGGAAGCAAATCAAAG,0.74,–,–
GTTGTAGAGGCATCCATC,–,≥ 1,–
AGCCTGGATAGCTTCTGT,–,≥ 1,–
GGAAGTATCTTGGCCTCC,–,≥ 1,–
GCCTTGTGGGACCCCACGAG,0.83,–,–
GGTATAAATTAAATGTTTCC,0.62,–,–
AGCTTCTGTCCATTCTTC,–,≥ 1,–
TAATTTCTTTTGCGTCAT,–,≥ 1,–
TGTTCGAGGAAATTTAAT,–,≥ 1,–
CATCTTGAGGTTTCTCTT,–,≥ 1,–
TCAGCCGAGTGGCTCAGCAG,0.91,–,–
TAGCCAGACCCCAGAGCTAG,0.46,–,–
ATTTGGATCCTTTATCAA,–,≥ 1,–
AAGTGGTAGTCGAGGGCCTC,0.77,–,–
CTCCCTCACTTTCCCAATAA,0.71,–,–

Sequence,remaining target (mRNA or protein) (fraction of control) (E2F1),remaining target (mRNA or protein) (fraction of control) (AKT3),also measured
GGACTTCTTGGCAATGAGCT,0.65,–,–
CTCTTCTAAACCCAACCT,–,0.79,–
GACCACAGGGTCTGGGCTGG,0.62,–,–
AAGCCTCCCCACCTGGCCTG,0.28,–,–
TGTAGAAAGGTAACCTCC,–,0.82,–
TTTCCTCTGGAGTATCTA,–,≥ 1,–
GCGTTTATTTGGATCCTT,–,≥ 1,–
CAACCCCTAGGCCCCACC,–,0.16,–
ATTCTTCATCAAAATATC,–,≥ 1,–
GATTCTGGGAGCAGGCACTG,0.79,–,–
TATTAAAACCAAAGCAGGAG,0.69,–,–
CGATCGGGCCTTGTTTGCTC,0.72,–,–
AGTCTACTGCTCGGCCAT,–,0.21,–
TTGGTCGTTCTGTTTTCA,–,≥ 1,–
GAACTCCTCAGGGAGGAGGC,0.59,–,–
CCCACACATCATTTCATA,–,0.25,–
GTGTGGGTGTAGGCTGCATG,0.76,–,–
GGTCCTGGGTCAACCCCTCA,0.62,–,–
TCATTTCATACATGACAA,–,≥ 1,–
AGAAGTCCTCCCGCACATGC,0.51,–,–
GGAGGACGGCCAGGGACAGG,0.7,–,–
GTCTGCTACAGCCTGGAT,–,0.92,–
TCCTGCAGCTGTCGGAGGTC,0.8,–,–
